According to ChEMBL document CHEMBL4393731, “Discovery of fused bicyclic derivatives of 1H-pyrrolo[1,2-c]imidazol-1-one as VDR signaling regulators” (Bioorg Med Chem, 2019):
Activity calls are given as the source filed them. The calls are words filed in the database; no cut-off is given here.

Legend:
[1] = molecular target: T1, Vitamin D3 receptor (Homo sapiens) (UniProt P11473); test: Activation of VDR (unknown origin) expressed in human HeLa cells measured after 24 hrs by luciferase reporter assay; assay type: cell-based
T1 sequence (whole entry): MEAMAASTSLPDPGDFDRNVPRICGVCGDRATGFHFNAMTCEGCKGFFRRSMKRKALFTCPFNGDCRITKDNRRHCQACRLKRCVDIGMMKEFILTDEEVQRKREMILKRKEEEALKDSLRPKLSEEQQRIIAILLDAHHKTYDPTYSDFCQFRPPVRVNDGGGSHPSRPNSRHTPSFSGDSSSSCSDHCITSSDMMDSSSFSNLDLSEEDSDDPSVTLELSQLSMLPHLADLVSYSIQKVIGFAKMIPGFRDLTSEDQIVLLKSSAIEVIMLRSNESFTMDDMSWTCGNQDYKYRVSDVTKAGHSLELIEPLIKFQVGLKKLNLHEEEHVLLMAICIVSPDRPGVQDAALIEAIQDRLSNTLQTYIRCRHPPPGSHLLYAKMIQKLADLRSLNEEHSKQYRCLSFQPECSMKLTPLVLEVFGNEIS

[2] = molecular target: Genome polyprotein (dengue virus type 2) (UniProt P29990); test: Inhibition of Dengue virus 2 NS2B-NS3 protease
[3] = molecular target: T1, Vitamin D3 receptor (Homo sapiens); test: Modulation of VDR (unknown origin) expressed in human HeLa cells assessed as increase in calcitriol-induced response measured after 24 hrs by luciferase reporter assay; assay type: cell-based
HeLa [4] = test: Cytotoxicity against human HeLa cells measured after 24 hrs by MTT assay; assay type: cell-based
HeLa [5] = test: Induction of autophagy in human HeLa cells assessed as calcitriol-induced up regulation of LC3-1 expression at 10 uM measured after 4 hrs by Western blot analysis; assay type: functional, cell-based
HeLa [6] = test: Induction of autophagy in human HeLa cells transformed with VDR shRNA assessed as effect on p62 expression at 10 uM measured after 4 hrs by Western blot analysis; assay type: functional, cell-based
HeLa [7] = test: Induction of autophagy in human HeLa cells transformed with VDR shRNA assessed as up regulation of LC3-2 expression at 10 uM measured after 4 hrs in presence of calcitriol by western blot analysis; assay type: functional, cell-based
HeLa [8] = test: Induction of autophagy in human HeLa cells transformed with VDR shRNA assessed as effect on p62 expression at 10 uM measured after 4 hrs in presence of calcitriol by Western blot analysis; assay type: functional, cell-based
[9] = molecular target: T1, Vitamin D3 receptor (Homo sapiens); test: Activation of VDR in human HeLa cells assessed as up regulation of phosphorylated p65 expression at 10 uM measured after 24 hrs in the presence of calcitriol by Western blot analysis; assay type: cell-based
HeLa [10] = test: Up regulation of VDR expression in human HeLa cells at 10 uM measured after 4 hrs in presence of VDR shRNA by Western blot analysis; assay type: functional, cell-based
[11] = molecular target: T1, Vitamin D3 receptor (Homo sapiens); test: Modulation of VDR in human HeLa cells assessed as increase in calcitriol-induced upregulation of p62 expression at 10 uM measured after 4 hrs by Western blot analysis; assay type: cell-based
[12] = molecular target: T1, Vitamin D3 receptor (Homo sapiens); test: Modulation of VDR in human HeLa cells assessed as increase in calcitriol-induced upregulation of LC3-2 expression at 10 uM measured after 4 hrs by Western blot analysis; assay type: cell-based
[13] = molecular target: T1, Vitamin D3 receptor (Homo sapiens); test: Modulation of VDR in human HeLa cells assessed as down regulation of p65 expression at 10 uM measured after 24 hrs in the presence of calcitriol by Western blot analysis; assay type: cell-based
HeLa [14] = test: Induction of autophagy in human HeLa cells transformed with VDR shRNA assessed as up regulation of LC3-1 expression at 10 uM measured after 4 hrs in presence of calcitriol by Western blot analysis; assay type: functional, cell-based
[15] = molecular target: T1, Vitamin D3 receptor (Homo sapiens); test: Modulation of VDR (unknown origin) expressed in human HeLa cells assessed as increase in calcitriol-induced response at 10 uM measured after 24 hrs by luciferase reporter assay relative to control; assay type: cell-based
HeLa [16] = test: Induction of autophagy in human HeLa cells transformed with shRNA against VDR assessed as downregulation of LC3-2 expression at 10 uM measured after 4 hrs; assay type: functional, cell-based
[17] = molecular target: T1, Vitamin D3 receptor (Homo sapiens); test: Modulation of VDR in human HeLa cells assessed as increase in calcitriol-induced LC3-2 to LC3-1 ratio at 10 uM measured after 4 hrs by Western blot analysis; assay type: cell-based
HeLa [18] = test: Induction of autophagy in human HeLa cells transformed with VDR shRNA assessed as increase in LC3-2 to LC3-1 ratio at 10 uM measured after 4 hrs in presence of calcitriol by Western blot analysis; assay type: functional, cell-based

Activity [1]	Inhibition (active/not active) [2]	Activity [3]	Activity [9]	Activity [11]	Activity [12]	Activity [13]	fold change (FC) [15]	Activity [17]	Structure (SMILES)	CC10 (HeLa [4])	Activity (HeLa [5])	Activity (HeLa [6])	Activity (HeLa [7])	Activity (HeLa [8])	Activity (HeLa [10])	Activity (HeLa [14])	Activity (HeLa [16])	Activity (HeLa [18])
inactive	Active	inactive							O=C1[C@@H]2CCCN2[C@@H](c2ccc(Cl)cc2)N1c1ccc([N+](=O)[O-])cc1	> 10 µM								
inactive	inactive	Dose-dependent effect	Active	Active	Active	Active			COc1cc([C@H]2N(c3ccc([N+](=O)[O-])cc3)C(=O)[C@@H]3CCCN32)ccc1O	> 10 µM	Active	inactive	Active	inactive	inactive	Active		
inactive	inactive	Dose-dependent effect							O=C1[C@@H]2CCCN2[C@@H](c2ccc(O)cc2)N1c1ccc([N+](=O)[O-])cc1	> 10 µM								
inactive	inactive	inactive							O=C1[C@@H]2CCCN2[C@@H](c2cccs2)N1c1ccc([N+](=O)[O-])cc1	> 10 µM								
inactive	Active	inactive							O=C1[C@@H]2CCCN2[C@@H](c2ccc(C(F)(F)F)cc2)N1c1ccc([N+](=O)[O-])cc1	> 10 µM								
inactive	inactive	inactive							O=C1[C@@H]2CCCN2[C@@H](c2ccccc2[N+](=O)[O-])N1c1ccc([N+](=O)[O-])cc1	> 10 µM								
inactive	inactive	Dose-dependent effect	Active	Active	Active	Active			O=C1[C@@H]2CCCN2[C@@H](c2ccco2)N1c1ccc([N+](=O)[O-])cc1	> 10 µM	Active	inactive	Active	inactive	inactive	Active		
inactive	Active	inactive							O=C1[C@@H]2CCCN2[C@@H](Cc2ccccc2)N1c1ccc([N+](=O)[O-])cc1	> 10 µM								
inactive	Active	inactive							O=C1[C@@H]2CCCN2[C@@H](c2cccc([N+](=O)[O-])c2)N1c1ccc([N+](=O)[O-])cc1	> 10 µM								
inactive	inactive	inactive							O=C1[C@@H]2CCCN2[C@@H](CCC[C@H]2N(c3ccc([N+](=O)[O-])cc3)C(=O)[C@@H]3CCCN32)N1c1ccc([N+](=O)[O-])cc1	> 10 µM								
inactive	inactive	Dose-dependent effect	Active	Active	Active	Active	2.5 to 3	Active	COc1ccc(C[C@H]2N(c3ccc([N+](=O)[O-])cc3)C(=O)[C@@H]3CCCN32)cc1OC	> 10 µM	inactive	inactive		inactive	Active	Active	Active	
inactive	Active	inactive							O=C1[C@@H]2CCCN2[C@@H](c2ccccc2)N1c1ccc([N+](=O)[O-])cc1	> 10 µM								
inactive	inactive	Dose-dependent effect	Active	Active	Active	Active		Active	CSCC[C@H](NC(=O)OC(C)(C)C)C(=O)Nc1ccc([C@H]2N(c3ccc([N+](=O)[O-])cc3)C(=O)[C@@H]3CCCN32)cc1	> 10 µM	Active	inactive	Active	inactive	Active	Active		
inactive	Active	inactive							O=C1[C@@H]2CCCN2[C@@H](Cc2ccc([N+](=O)[O-])cc2)N1c1ccc([N+](=O)[O-])cc1	> 10 µM								
inactive	inactive	inactive							O=C1[C@@H]2CCCN2[C@@H](c2ccc([C@H]3N(c4ccc([N+](=O)[O-])cc4)C(=O)[C@@H]4CCCN43)cc2)N1c1ccc([N+](=O)[O-])cc1	> 10 µM								
inactive	inactive	Dose-dependent effect	Active	Active	Active	Active	2.5 to 3	Active	CSCC[C@H](N)C(=O)Oc1ccc([C@H]2N(c3ccc([N+](=O)[O-])cc3)C(=O)[C@@H]3CCCN32)cc1.Cl	> 10 µM	Active	inactive	Active	inactive	Active	Active		Active
inactive	Active	inactive							CC(C)c1ccc([C@H]2N(c3ccc([N+](=O)[O-])cc3)C(=O)[C@@H]3CCCN32)cc1	> 10 µM								
inactive	Active	Dose-dependent effect							O=C1[C@@H]2CCCN2[C@@H](c2ccc([N+](=O)[O-])cc2)N1c1ccc([N+](=O)[O-])cc1	> 10 µM								
inactive	Active	inactive							COc1ccc([C@H]2N(c3ccc([N+](=O)[O-])cc3)C(=O)[C@@H]3CCCN32)cc1	> 10 µM								
